We go through 35 molecules from patent US10207993B2 (priority 2014, dated 2019).

The first test concerns H37Rv. The test is described as follows: microbe, parasite or virus in culture. It counts as cell-based, M. tuberculosis. The settings on record: 0.5 µM.
For the molecule `CN1CCCC(NC(=O)C(O)(c2ccccc2)c2ccccc2)C1` (stereo in doubt) [Compound 1032, (R)-2-Hydroxy-N-(1-methylpiperidin-3-yl)-2,2-diphenylacetamide], the “H37Rv % Inhibition at 500 nM” value stood at 72%. In the case of `CN1CCCC(NC(=O)[C@H](O)c2ccccc2)C1` (stereo in doubt) [Compound 1045, (R)-2-Hydroxy-N-((S)-1-methylpiperidin-3-yl)-2-phenylacetamide], the “H37Rv % Inhibition at 500 nM” value was 66%. Still for that read-out and setting: as for `CN1CCC(OC(=O)C(O)c2ccccc2)CC1` (stereo in doubt) [Compound 1047, (S)-1-Methylpiperidin-4-yl 2-hydroxy-2-phenylacetate], the figure is 68%. The same measure, in the same setting: as for `O=C(NC1CCN(Cc2ccccc2)CC1)C(O)(c1ccccc1)c1ccccc1` [Compound 1021, N-(1-Benzylpiperidin-4-yl)-2-hydroxy-2,2-diphenylacetamide], the figure is 74%. Same read-out and setting: the figure for `O=C(Nc1cccnc1)[C@H](O)c1ccccc1` [Compound 1055, (R)-2-Hydroxy-2-phenyl-N-(pyridin-3-yl)acetamide] is 52%.

Staying with this test, now noted: Mycobacterium tuberculosis, H37RV, THP-1, 90 h, read-out: H37Rv % Inhibition at 500 nM.
In general, inhibition refers to the relative decrease from the control value, in per cent. Consider `O=C(NC1CCCN(Cc2ccccc2)C1)C(O)(c1ccccc1)c1ccccc1` (stereo in doubt) [Compound 1029, (R)-N-(1-Benzylpiperidin-3-yl)-2-hydroxy-2,2-diphenylacetamide], for which the inhibition at 0.5 µM came out at 61%. The same measure, in the same setting: the figure for `O=C(Nc1cccnc1)C(O)c1ccccc1` (stereo in doubt) [Compound 1046, (S)-2-Hydroxy-2-phenyl-N-(pyridin-3-yl)acetamide] is 56%; for `COC(C(=O)OC1CCCN(C)C1)c1ccccc1` (stereo in doubt) [Compound 1059, (S)-(R)-1-Methylpiperidin-3-yl 2-methoxy-2-phenylacetate] it is 74%; for `C[N+]12CCC(CC1)C(OC(=O)C(O)(c1ccccc1)c1ccccc1)C2` (centres unmarked) [Compound 1008, 3-(2-Hydroxy-2,2-diphenylacetoxy)-1-methylquinuclidin-1-ium] it is 42%.

For `O=C(NC1CCCNC1)C(O)(c1ccccc1)c1ccccc1` (centres unmarked) [Compound 1016, 2-Hydroxy-2,2-diphenyl-N-(piperidin-3-yl)acetamide], the inhibition at 0.5 µM is 65%. On to `O=C(NC1CCN(Cc2ccccc2)CC1)C(O)(c1ccccc1)c1ccccc1` [Compound 1017, N-(1-Benzylpiperidin-4-yl)-2-hydroxy-2,2-diphenylacetamide], for which the inhibition at 0.5 µM was determined as 75%.

`CN1CCCC(NC(=O)C(O)(c2ccccc2)c2ccccc2)C1` (centres unmarked) [Compound 1020, 2-Hydroxy-N-(1-methylpiperidin-3-yl)-2,2-diphenylacetamide]: the inhibition at 0.5 µM turned out to be 64%. On the same count and under the same terms, as for `O=C(NC1CN(Cc2ccccc2)C1)C(O)(c1ccccc1)c1ccccc1` [Compound 1022, N-(1-Benzylazetidin-3-yl)-2-hydroxy-2,2-diphenylacetamide], the figure is 75%; as for `O=C(N[C@@H]1CCCN(Cc2ccccc2)C1)C(O)(c1ccccc1)c1ccccc1` [Compound 1028, (R)-N-(1-Benzylpiperidin-3-yl)-2-hydroxy-2,2-diphenylacetamide], 77%; as for `O=C(NC1CCNCC1)C(O)(c1ccccc1)c1ccccc1` [Compound 1030, 2-Hydroxy-2,2-diphenyl-N-(piperidin-4-yl)acetamide], 52%.

Consider `CN1CCC[C@H](NC(=O)C(O)(c2ccccc2)c2ccccc2)C1` [Compound 1031, (S)-2-Hydroxy-N-(1-methylpiperidin-3-yl)-2,2-diphenylacetamide], for which the inhibition at 0.5 µM is 74%. On to `O=C(N[C@@H]1CCCN(Cc2ccccc2)C1)C(c1ccccc1)c1ccccc1` [Compound 1034, (R)-N-(1-Benzylpiperidin-3-yl)-2,2-diphenylacetamide], for which the inhibition at 0.5 µM was 64%. Still for that read-out and setting: as for `O=C(N[C@H]1CCCN(Cc2ccccc2)C1)C(O)c1ccccc1` (stereo partly drawn) [Compound 1035, N-((S)-1-Benzylpiperidin-3-yl)-2-hydroxy-2-phenylacetamide], the figure is 62%; as for `CC(O)(C(=O)N[C@@H]1CCCN(Cc2ccccc2)C1)c1ccccc1` (stereo partly drawn) [Compound 1036, N-((R)-1-Benzylpiperidin-3-yl)-2 hydroxy-2-phenylpropanamide], 58%. For the molecule `CN1CCC[C@@H](OC(=O)[C@H](O)c2ccccc2)C1` [Compound 1037, (R)-(R)-1-Methylpiperidin-3-yl 2-hydroxy-2-phenylacetate], the inhibition at 0.5 µM turned out to be 40%. Still for that read-out and setting: the figure for `CN1CCC[C@H](OC(=O)[C@H](O)c2ccccc2)C1` [Compound 1038] is 56%; for `CN1CCC[C@@H](OC(=O)[C@@H](O)c2ccccc2)C1` [Compound 1039] it is 61%; for `CN1CCC[C@H](OC(=O)[C@@H](O)c2ccccc2)C1` [Compound 1040, (S)-(S)-1-Methylpiperidin-3-yl 2-hydroxy-2-phenylacetate] it is 79%. For `CN1CCC(OC(=O)[C@H](O)c2ccccc2)CC1` [Compound 1041, (R)-1-Methylpiperidin-4-yl 2-hydroxy-2-phenylacetate], the inhibition at 0.5 µM was found to be 71%. Same read-out and setting: as for `CN1CCC(NC(=O)[C@@H](O)c2ccccc2)CC1` [Compound 1042, (S)-2-Hydroxy-N-(1-methylpiperidin-4-yl)-2-phenylacetamide], the figure is 73%; as for `CN1CCC(NC(=O)[C@H](O)c2ccccc2)CC1` [Compound 1043, (R)-2-Hydroxy-N-(1-methylpiperidin-4-yl)-2-phenylacetamide], 72%; as for `CN1CCC[C@@H](NC(=O)[C@H](O)c2ccccc2)C1` [Compound 1044, (R)-2-Hydroxy-N-((R)-1-methylpiperidin-3-yl)-2-phenylacetamide], 65%. Still for that read-out and setting: the figure for `O=C(OC1CN(Cc2ccccc2)C1)[C@@H](O)c1ccccc1` [Compound 1048, (S)-1-Benzylazetidin-3-yl 2-hydroxy-2-phenylacetate] is 79%.

For the molecule `O=C(NC1CCN(Cc2ccccc2)CC1)[C@H](O)c1ccccc1` [Compound 1051, (R)-N-(1-Benzylpiperidin-4-yl)-2-hydroxy-2-phenylacetamide], the inhibition at 0.5 µM was 59%. Same read-out and setting: as for `O=C(NC1CCN(Cc2ccccc2)CC1)[C@@H](O)c1ccccc1` [Compound 1052, (S)-N-(1-Benzylpiperidin-4-yl)-2-hydroxy-2-phenylacetamide], the figure is 73%; as for `C[N+]1(C)CCC[C@@H](OC(=O)[C@H](O)c2ccccc2)C1` [Compound 1053, (R)-3-((R)-2-Hydroxy-2-phenylacetoxy)-1,1-dimethylpiperidin-1-ium], 78%; as for `C[N+]1(C)CCC[C@H](OC(=O)[C@H](O)c2ccccc2)C1` [Compound 1054, (S)-3-((R)-2-Hydroxy-2-phenylacetoxy)-1,1-dimethylpiperidin-1-ium], 74%.

`CC(=O)O[C@@H](C(=O)O[C@H]1CCCN(C)C1)c1ccccc1` [Compound 1056]: the inhibition at 0.5 µM was 78%. With `CN1CC[C@@H](OC(=O)[C@H](O)c2ccccc2)C1` [Compound 1057, (R)-(R)-1-Methylpyrrolidin-3-yl 2-hydroxy-2-phenylacetate], the inhibition at 0.5 µM came out at 76%.

For `CN1CC[C@H](OC(=O)[C@H](O)c2ccccc2)C1` [Compound 1058], the inhibition at 0.5 µM stood at 55%.
